Key:
[1] = biological target: Melanocortin receptor 5 (Homo sapiens, UniProt P33032); experiment: Displacement of [125I]NDP-MSH from human recombinant MC5 receptor expressed in Sf9 cells
[2] = biological target: Melanocyte-stimulating hormone receptor (Mus musculus, UniProt Q01727); experiment: Displacement of [125I]NDP-MSH from MC1 receptor in mouse B16 cells; format: cell-based
[3] = biological target: Melanocortin receptor 4 (Homo sapiens, UniProt P32245); experiment: Displacement of [125I]NDP-MSH from human recombinant MC4 receptor expressed in Sf9 cells
[4] = biological target: Melanocortin receptor 3 (Homo sapiens, UniProt P41968); experiment: Displacement of [125I]NDP-MSH from human recombinant MC3 receptor expressed in Sf9 cells
Melanocortin receptor 3, sequence (P41968 whole entry): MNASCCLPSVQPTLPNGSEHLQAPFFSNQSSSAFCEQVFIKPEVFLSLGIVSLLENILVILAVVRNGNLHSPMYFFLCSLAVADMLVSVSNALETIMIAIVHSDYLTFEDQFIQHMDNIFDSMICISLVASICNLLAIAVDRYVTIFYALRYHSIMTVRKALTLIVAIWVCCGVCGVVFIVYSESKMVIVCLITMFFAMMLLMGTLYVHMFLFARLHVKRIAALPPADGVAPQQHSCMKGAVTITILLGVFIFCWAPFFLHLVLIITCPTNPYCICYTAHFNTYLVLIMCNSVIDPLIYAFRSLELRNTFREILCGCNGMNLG

Melanocortin receptor 5, sequence (P33032 whole entry): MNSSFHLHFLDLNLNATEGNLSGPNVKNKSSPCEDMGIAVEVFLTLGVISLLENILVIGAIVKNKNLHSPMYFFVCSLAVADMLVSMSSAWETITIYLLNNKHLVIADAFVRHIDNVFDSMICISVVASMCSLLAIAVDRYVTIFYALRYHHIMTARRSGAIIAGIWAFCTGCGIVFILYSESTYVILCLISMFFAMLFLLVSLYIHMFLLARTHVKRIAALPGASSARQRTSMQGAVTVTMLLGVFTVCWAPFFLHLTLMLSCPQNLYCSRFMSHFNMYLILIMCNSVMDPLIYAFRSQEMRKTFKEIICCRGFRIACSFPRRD
Melanocortin receptor 4, sequence (P32245 whole entry): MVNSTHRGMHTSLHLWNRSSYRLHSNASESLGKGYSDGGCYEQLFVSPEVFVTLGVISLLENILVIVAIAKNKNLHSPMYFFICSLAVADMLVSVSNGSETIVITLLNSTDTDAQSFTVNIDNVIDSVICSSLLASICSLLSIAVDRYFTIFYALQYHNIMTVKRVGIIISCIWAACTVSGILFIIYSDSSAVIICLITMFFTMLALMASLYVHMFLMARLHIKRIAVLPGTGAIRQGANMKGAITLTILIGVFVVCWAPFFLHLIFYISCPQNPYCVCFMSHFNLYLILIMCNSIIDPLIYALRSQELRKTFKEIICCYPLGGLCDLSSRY
Melanocyte-stimulating hormone receptor, sequence (Q01727 whole entry): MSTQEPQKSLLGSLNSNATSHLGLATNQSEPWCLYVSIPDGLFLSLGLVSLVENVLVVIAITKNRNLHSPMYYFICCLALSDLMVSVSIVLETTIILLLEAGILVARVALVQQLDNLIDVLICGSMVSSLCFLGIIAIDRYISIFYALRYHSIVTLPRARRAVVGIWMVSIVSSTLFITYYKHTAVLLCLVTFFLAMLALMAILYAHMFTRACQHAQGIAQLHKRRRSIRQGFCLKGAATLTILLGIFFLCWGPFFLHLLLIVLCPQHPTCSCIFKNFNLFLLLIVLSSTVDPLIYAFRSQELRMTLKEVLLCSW

SMILES	Ki [1]	Ki [2]	Ki [3]	Ki [4]
COc1ccccc1/C=C/CN(C(=O)CCCc1c[nH]c2ccccc12)C1CCC(CC2CCC(N)CC2)CC1 (stereo in doubt; form 1)	7.5 µM	1.5 µM	4.9 µM	17 µM
NCCCCCN(CCCc1ccccc1)C(=O)CCCc1c[nH]c2ccccc12	19 µM	18 µM	–	61 µM
CCCCCN(Cc1ccc(N(CC)CC)cc1)C(=O)CCCc1c[nH]c2ccccc12	408 µM	72 µM	78 µM	289 µM
NC1CCCC(NC(=O)NC2CCCC(N(Cc3ccccc3)C(=O)CCCc3c(Cc4ccc(O)cc4)[nH]c4ccccc34)C2)C1 (stereo unspecified)	23 µM	2.9 µM	6.5 µM	25 µM
NCCCCCN(C/C=C\c1ccccc1)C(=O)CCc1c(Cc2ccc(O)cc2)[nH]c2ccccc12	6.7 µM	3.3 µM	7.1 µM	27 µM
NCCCN(C(=O)c1cc2cc(OCc3ccccc3)ccc2[nH]1)C1CCc2ccccc2C1 (stereo unspecified)	681 µM	26 µM	21 µM	542 µM
NCCCCCN(Cc1ccc2ccccc2c1)C(=O)Cc1c[nH]c2ccccc12	5.2 µM	1.5 µM	13 µM	50 µM
NCCCCCN(Cc1ccccc1)C(=O)[C@H](N)Cc1c[nH]c2ccccc12	159 µM	32 µM	87 µM	106 µM
COc1cc(Br)c(/C=C/CN(C(=O)CCCc2c(Cc3ccc(O)cc3)[nH]c3ccccc23)C2CCC(CC3CCC(N)CC3)CC2)cc1OC (stereo unspecified)	18 µM	0.94 µM	1.3 µM	94 µM
CC(c1ccc(C(F)(F)F)cc1)N(CCCCCN)C(=O)Cc1c[nH]c2ccccc12 (stereo unspecified)	11 µM	2.6 µM	16 µM	12 µM
NC1CCC(CC2CCC(N(Cc3ccncc3)C(=O)CCCc3c[nH]c4ccccc34)CC2)CC1 (stereo in doubt; form 1)	–	2.5 µM	7 µM	28 µM
Cc1ccccc1CN(C(=O)CCCc1c(Cc2ccc(O)cc2)[nH]c2ccccc12)C1CCC(CC2CCC(N)CC2)CC1 (stereo unspecified)	4.4 µM	4.7 µM	4.1 µM	349 µM
NCCCN(CCCc1ccccc1)C(=O)Cc1c[nH]c2ccccc12	13 µM	5 µM	32 µM	5.7 µM
NC1CCC(CC2CCC(N(C/C(Cl)=C/c3ccccc3)C(=O)CCCc3c[nH]c4ccccc34)CC2)CC1 (stereo in doubt; form 1)	47 µM	0.51 µM	4.1 µM	7.1 µM
NCCCCN(Cc1ccccc1)C(=O)CCCc1c[nH]c2ccccc12	20 µM	12 µM	17 µM	38 µM
NCCN(C/C=C/c1ccccc1)C(=O)CCc1c[nH]c2ccccc12	13 µM	17 µM	106 µM	51 µM
COc1cc(Br)c(CN(C(=O)CCCc2c[nH]c3ccccc23)[C@H]2CC[C@@H](C[C@H]3CC[C@@H](N)CC3)CC2)cc1OC	6.9 µM	2.3 µM	7.8 µM	8.1 µM
CC1CC(CC2CCC(N(Cc3ccccc3)C(=O)CCCc3c[nH]c4ccccc34)C(C)C2)CCC1N (stereo in doubt; form 3)	6.9 µM	1.7 µM	3.7 µM	6.6 µM
CSc1ccc(CN(C(=O)CCCc2c(Cc3ccc(O)cc3)[nH]c3ccccc23)C2CCC(CC3CCC(N)CC3)CC2)cc1 (stereo unspecified)	8.9 µM	17 µM	4.5 µM	201 µM
CC1CC(CC2CCC(N(C/C(Cl)=C/c3ccccc3)C(=O)CCCc3c[nH]c4ccccc34)C(C)C2)CCC1N (stereo in doubt; form 1)	9.1 µM	5.6 µM	7.7 µM	64 µM
NCCN(Cc1ccc2ccccc2c1)C(=O)c1c[nH]c2ccccc12	27 µM	3.6 µM	66 µM	134 µM
N=C(N)NCCCCN(Cc1ccc2ccccc2c1)C(=O)Cc1c[nH]c2ccccc12	16 µM	17 µM	182 µM	137 µM
NCC1CCCC(CN(Cc2ccccc2)C(=O)CCCc2c[nH]c3ccccc23)C1 (stereo unspecified)	8.7 µM	2.7 µM	3.6 µM	24 µM
NCCCN(C(=O)/C=C/c1c[nH]c2ccccc12)C1CCc2ccccc2C1 (stereo unspecified)	12 µM	6 µM	11 µM	48 µM
COc1ccc(CN(C(=O)CCCc2c[nH]c3ccccc23)C2CCC(CC3CCC(N)CC3)CC2)cc1OC (stereo unspecified)	8.3 µM	3.2 µM	3.7 µM	22 µM
C/C(=C\c1ccccc1)CN(CCCCCCN)C(=O)c1cc2cc(O)ccc2[nH]1	20 µM	3.7 µM	11 µM	27 µM
NCCCCCCN(C/C(Cl)=C/c1ccccc1)C(=O)CCCc1c[nH]c2ccccc12	21 µM	2.4 µM	3.8 µM	26 µM
NC1CCC(CC2CCC(N(Cc3c(F)cccc3F)C(=O)CCCc3c[nH]c4ccccc34)CC2)CC1 (stereo unspecified)	83 µM	1.8 µM	3 µM	52 µM

SMILES	Ki [1]	Ki [2]	Ki [3]	Ki [4]
C/C(=C\c1ccccc1)CN(CCCN)C(=O)c1c[nH]c2ccccc12	0.93 µM	0.85 µM	7.4 µM	24 µM
C=C(Br)CN(C(=O)CCCc1c[nH]c2ccccc12)C1CCC(CC2CCC(N)CC2)CC1 (stereo in doubt; form 4)	5.5 µM	0.81 µM	3.8 µM	27 µM
NC1CCC(CC2CCC(N(C/C(Cl)=C/c3ccccc3)C(=O)COc3ccc4ccccc4c3)CC2)CC1 (stereo in doubt; form 1)	–	1.9 µM	4.7 µM	–
NCCCCCN(C/C=C\c1ccccc1)C(=O)CCCc1c[nH]c2ccccc12	2.2 µM	3 µM	16 µM	36 µM
NCCCCCN(Cc1ccc2c(c1)OCO2)C(=O)CCCc1c[nH]c2ccccc12	23 µM	5.5 µM	12 µM	38 µM
NCCCCN(C/C=C/c1ccccc1)C(=O)CCc1c[nH]c2ccccc12	10 µM	8.3 µM	18 µM	67 µM
CSc1ccc(CN(C(=O)CCCc2c[nH]c3ccccc23)C2CCC(CC3CCC(N)CC3)CC2)cc1 (stereo unspecified)	85 µM	3.2 µM	4.3 µM	249 µM
NCCN(C(=O)CCCc1c[nH]c2ccccc12)C1CCC2(CCCCC2)CC1	12 µM	3.2 µM	10 µM	2.7 µM
N[C@H]1CC[C@H](N(Cc2ccccc2)C(=O)CCCc2c[nH]c3ccccc23)CC1	40 µM	4.3 µM	8.4 µM	50 µM
C/C(=C\c1ccccc1)CN(CCCN)C(=O)C(=O)c1c[nH]c2ccccc12	58 µM	1.8 µM	6.2 µM	9.1 µM
Cc1ccc(CN(C(=O)CCCc2c(Cc3ccc(O)cc3)[nH]c3ccccc23)C2CCC(CC3CCC(N)CC3)CC2)cc1 (stereo unspecified)	2.2 µM	4.7 µM	1.9 µM	147 µM
NC1CCC(CC2CCC(N(C/C(Cl)=C/c3ccccc3)C(=O)COc3ccc4ccccc4c3)CC2)CC1 (stereo in doubt; form 6)	–	1.9 µM	5 µM	–
NC1CCC(CC2CCC(N(C/C(Cl)=C/c3ccccc3)C(=O)CCCc3c[nH]c4ccccc34)CC2)CC1 (stereo in doubt; form 4)	4.9 µM	1.4 µM	5.6 µM	31 µM
NCCCCCN(CCc1ccc2ccccc2c1)C(=O)Cc1c[nH]c2ccccc12	8 µM	4.5 µM	9.4 µM	13 µM
NCC1CCCC(CN(C/C(Cl)=C/c2ccccc2)C(=O)CCCc2c[nH]c3ccccc23)C1 (stereo unspecified)	9.1 µM	1.5 µM	3.7 µM	25 µM
NC1CCC(CC2CCC(N(Cc3ccccc3F)C(=O)CCCc3c[nH]c4ccccc34)CC2)CC1 (stereo unspecified)	7.2 µM	2.4 µM	3.7 µM	20 µM
NCc1cccc(CN(Cc2ccc3ccccc3c2)C(=O)CCCc2c[nH]c3ccccc23)c1	6.4 µM	1.5 µM	7.7 µM	17 µM
NCCCCCN(Cc1ccccc1)C(=O)[C@H](N)Cc1ccc([N+](=O)[O-])cc1	102 µM	37 µM	96 µM	162 µM
NCCN(CCCc1ccccc1)C(=O)CCc1c[nH]c2ccccc12	20 µM	21 µM	–	127 µM
NC1CCC(CC2CCC(N(C/C(Cl)=C/c3ccccc3)C(=O)COc3ccc4ccccc4c3)CC2)CC1 (stereo in doubt; form 7)	–	1.3 µM	4 µM	–
NCCN(C/C(Cl)=C/c1ccccc1)C(=O)CCCc1c[nH]c2ccccc12	–	5.6 µM	5.8 µM	65 µM
NC1CCC(CC2CCC(N(C/C(Cl)=C/c3ccccc3)C(=O)COc3ccc4ccccc4c3)CC2)CC1 (stereo in doubt; form 4)	–	0.96 µM	4.4 µM	–
NC1CCC(CC2CCC(N(C/C(Cl)=C/c3ccccc3)C(=O)COc3ccc4ccccc4c3)CC2)CC1 (stereo in doubt; form 3)	–	0.41 µM	3.4 µM	–
NC1CCC(CC2CCC(N(C/C(Cl)=C/c3ccccc3)C(=O)COc3ccc4ccccc4c3)CC2)CC1 (stereo in doubt; form 2)	–	1.5 µM	5.9 µM	289 µM
NCCN(Cc1ccccc1)C(=O)CCCc1c[nH]c2ccccc12	–	22 µM	21 µM	49 µM
C/C(=C/c1ccccc1)CN(CCCCCN)C(=O)/C=C/c1c[nH]c2ccccc12	17 µM	2.7 µM	99 µM	–
NCCCN(C(=O)CCc1c[nH]c2ccccc12)C1CCc2ccccc2C1 (stereo unspecified)	–	3.7 µM	7 µM	–

Reference: ChEMBL document CHEMBL1149662, “Design and synthesis of a library of tertiary amides: evaluation as mimetics of the melanocortins' active core” (Bioorg Med Chem, 2007)
